Data: patent US10208059B2, “Heterocyclic modulators of HIF activity for treatment of disease” (Board of Regents, University of Texas System, priority 2012, dated 2019)
Structures can show the parent of a compound that is named as a salt.

Tested on: 293T-HRE-GFP-luc cells
Assay: Cell-based reporter assay for IC50 determinations
Conditions: hypoxia 6 hrs (1% O2), luminescence, read-out: IC50 Classification
Procedure: Cell-Based Reporter Assay for IC50 Determinations
293T-HRE-GFP-luc cells were routinely maintained in DMEM media (high glucose version with GlutaMAX and HEPES, Gibco, catalog #10564) supplemented with 10% fetal bovine serum and 2 μg/mL puromycin (Invitrogen, catalog #A11138-03) using a humidified incubator (normoxia conditions consisting of 37° C., 5% CO2 and ambient O2).
In preparation for the reporter assay, cells were harvested and resuspended in DMEM media (high glucose version with GlutaMAX and HEPES) supplemented with 10% fetal bovine serum. Cells were inoculated into 384-well white Culturplates (Perkin Elmer catalog #6007680) at a density of 12,000 cells/well in a volume of 30 μL. The microplates were incubated overnight (approximately 17-19 hours) at 37° C. with 5% CO2 and ambient O2. Stock solutions of the test compounds were prepared in DMSO (Sigma, Catalog #D2650) and serially diluted 1:3 using DMSO. Compounds were additionally diluted (1:50) with culturemedium and 10 μL were added per well to the Culturplate. Following a 30 min. incubation under normoxia conditions, the plates were incubated in hypoxia for 6 hrs. (37° C., 5% CO2 and 1% O2). Steadylite Plus (Perkin Elmer, catalog #6016751) was then added (40 μL/well), the plates were mixed on an orbital shaker at room temperature in the dark for 15 min., and luminescence was measured using an Envision plate reader (Perkin Elmer). IC50 values were calculated using a four-parameter logistic curve fit. Results are shown below in Table 2; ND indicates no data.

Question: For `Cc1nc(-c2nc(-c3ccc(OC(F)(F)F)cc3)no2)nn1Cc1cccc(N2CCN(C)CC2)c1` [Example 25, 1-methyl-4-(3-((5-methyl-3-(3-(4-(trifluoromethoxy)phenyl)-1,2,4-oxadiazol-5-yl)-1H-1,2,4-triazol-1-yl)methyl)phenyl)piperazin-1-ium trifluoroacetate], which IC50 is on record?
Answer: < 100 nM

Question: Which IC50 does the source give for `Cc1nc(-c2nc(-c3ccc(OC(F)(F)F)cc3)no2)nn1Cc1ccnc(N2CCC(O)CC2)c1` [Example 26, 1-(4-((5-Methyl-3-(3-(4-(trifluoromethoxy)phenyl)-1,2,4-oxadiazol-5-yl)-1H-1,2,4-triazol-1-yl)methyl)pyridin-2-yl)piperidin-4-ol] here?
Answer: < 100 nM

Question: For `Cc1nc(-c2nc(-c3ccc(OC(F)(F)F)cc3)no2)nn1Cc1ccnc(N2CCC(C#N)CC2)c1` [Example 27, 1-(4-((5-Methyl-3-(3-(4-(trifluoromethoxy)phenyl)-1,2,4-oxadiazol-5-yl)-1H-1,2,4-triazol-1-yl)methyl)pyridin-2-yl)piperidine-4-carbonitrile], which IC50 is on record?
Answer: < 100 nM

Question: Which IC50 does the source give for `Cc1nc(-c2nc(-c3ccc(OC(F)(F)F)cc3)no2)nn1Cc1ccnc(N2CCCC2)c1` [Example 28, 5-(5-Methyl-1-((2-(pyrrolidin-1-yl)pyridin-4-yl)methyl)-1H-1,2,4-triazol-3-yl)-3-(4-(trifluoromethoxy)phenyl)-1,2,4-oxadiazole] here?
Answer: < 100 nM

Question: Which IC50 does the source give for `Cc1nc(-c2nc(-c3ccccc3)no2)nn1Cc1ccnc(N2CCN(C)CC2)c1` [Example 29, 1-Methyl-4-(4-((5-methyl-3-(3-phenyl-1,2,4-oxadiazol-5-yl)-1H-1,2,4-triazol-1-yl)methyl)pyridin-1-ium-2-yl)piperazin-1-ium bis-trifluoroacetate] here?
Answer: 1000 to 10000 nM

Question: Which IC50 does the source give for `Cc1nc(-c2nc(-c3ccc(OC(F)(F)F)cc3)no2)nn1Cc1cccc(C(=O)NCCN(C)C)c1` [Example 30, N-(2-(Dimethylamino)ethyl)-3-((5-methyl-3-(3-(4-(trifluoromethoxy)phenyl)-1,2,4-oxadiazol-5-yl)-1H-1,2,4-triazol-1-yl)methyl)benzamide] here?
Answer: < 100 nM

Question: How did the IC50 turn out when `Cc1nc(-c2nc(-c3ccc(OC(F)(F)F)cc3)no2)nn1Cc1ccnc(N2CCC(C)(C)CC2)c1` [Example 31, 5-(1-((2-(4,4-Dimethylpiperidin-1-yl)pyridin-4-yl)methyl)-5-methyl-1H-1,2,4-triazol-3-yl)-3-(4-(trifluoromethoxy)phenyl)-1,2,4-oxadiazole] was run?
Answer: < 100 nM

Question: `COCCCNc1cc(Cn2nc(-c3nc(-c4ccc(OC(F)(F)F)cc4)no3)nc2C)ccn1` [Example 32, N-(3-Methoxypropyl)-4-((5-methyl-3-(3-(4-(trifluoromethoxy)phenyl)-1,2,4-oxadiazol-5-yl)-1H-1,2,4-triazol-1-yl)methyl)pyridin-2-amine] was tested. Which IC50 did it give?
Answer: < 100 nM

Question: How did the IC50 turn out when `CCc1nc(-c2nc(-c3ccc(OC(F)(F)F)cc3)no2)nn1Cc1ccccc1` [Example 33, 5-(1-Benzyl-5-ethyl-1H-1,2,4-triazol-3-yl)-3-(4-(trifluoromethoxy)phenyl)-1,2,4-oxadiazole] was run?
Answer: 1000 to 10000 nM

Question: With `FC(F)(F)Oc1ccc(-c2noc(-c3nc(C4CC4)n(Cc4ccccc4)n3)n2)cc1` [Example 34, 5-(1-Benzyl-5-cyclopropyl-1H-1,2,4-triazol-3-yl)-3-(4-(trifluoromethoxy)phenyl)-1,2,4-oxadiazole] as the molecule, how does the IC50 read?
Answer: 1000 to 10000 nM

Question: `Cc1nc(-c2nc(-c3ccc(OC(F)(F)F)cc3)no2)nn1Cc1ccnc(NCCN2CCOCC2)c1` [Example 35, 4-((5-Methyl-3-(3-(4-(trifluoromethoxy)phenyl)-1,2,4-oxadiazol-5-yl)-1H-1,2,4-triazol-1-yl)methyl)-N-(2-morpholinoethyl)pyridin-2-amine] was tested. Which IC50 did it give?
Answer: < 100 nM

Question: With `CNc1cc(Cn2nc(-c3nc(-c4ccc(OC(F)(F)F)cc4)no3)nc2C)ccn1` [Example 36, N-Methyl-4-((5-methyl-3-(3-(4-(trifluoromethoxy)phenyl)-1,2,4-oxadiazol-5-yl)-1H-1,2,4-triazol-1-yl)methyl)pyridin-2-amine] as the molecule, how does the IC50 read?
Answer: < 100 nM

Question: How did the IC50 turn out when `Cc1nc(-c2nc(-c3ccc(OC(F)(F)F)cc3)no2)nn1Cc1ccnc(N(C)C)c1` [Example 37, N,N-Dimethyl-4-((5-methyl-3-(3-(4-(trifluoromethoxy)phenyl)-1,2,4-oxadiazol-5-yl)-1H-1,2,4-triazol-1-yl)methyl)pyridin-2-amine] was run?
Answer: < 100 nM

Question: For `CC(=O)N1CCN(c2cc(Cn3nc(-c4nc(-c5ccc(OC(F)(F)F)cc5)no4)nc3C)ccn2)CC1` [Example 38, 1-(4-(4-((5-Methyl-3-(3-(4-(trifluoromethoxy)phenyl)-1,2,4-oxadiazol-5-yl)-1H-1,2,4-triazol-1-yl)methyl)pyridin-2-yl)piperazin-1-yl)ethanone], which IC50 is on record?
Answer: < 100 nM

Question: Which IC50 does the source give for `Cc1nc(-c2nc(-c3ccc(OC(F)(F)F)cc3)no2)nn1Cc1cccc(C(=O)NCCO)c1` [Example 39, N-(2-Hydroxyethyl)-3-((5-methyl-3-(3-(4-(trifluoromethoxy)phenyl)-1,2,4-oxadiazol-5-yl)-1H-1,2,4-triazol-1-yl)methyl)benzamide] here?
Answer: 100 to 1000 nM

Question: `Cc1nc(-c2nc(-c3ccc(OC(F)(F)F)cc3)no2)nn1Cc1cccc(C(=O)N(C)C)c1` [Example 40, N,N-Dimethyl-3-((5-methyl-3-(3-(4-(trifluoromethoxy)phenyl)-1,2,4-oxadiazol-5-yl)-1H-1,2,4-triazol-1-yl)methyl)benzamide] was tested. Which IC50 did it give?
Answer: < 100 nM

Question: For `COCCCNC(=O)c1ccc(Cn2nc(-c3nc(-c4ccc(OC(F)(F)F)cc4)no3)nc2C)cc1` [Example 41, N-(3-Methoxypropyl)-4-((5-methyl-3-(3-(4-(trifluoromethoxy)phenyl)-1,2,4-oxadiazol-5-yl)-1H-1,2,4-triazol-1-yl)methyl)benzamide], which IC50 is on record?
Answer: 100 to 1000 nM

Question: With `Cc1nc(-c2nc(-c3ccc(OC(F)(F)F)cc3)no2)nn1Cc1ccc(C(=O)N2CCN(C)CC2)cc1` [Example 42, (4-((5-Methyl-3-(3-(4-(trifluoromethoxy)phenyl)-1,2,4-oxadiazol-5-yl)-1H-1,2,4-triazol-1-yl)methyl)phenyl)(4-methylpiperazin-1-yl)methanone] as the molecule, how does the IC50 read?
Answer: 100 to 1000 nM

Question: How did the IC50 turn out when `Cc1nc(-c2nc(-c3ccc(OC(F)(F)F)cc3)no2)nn1Cc1ccnc(N2CCS(=O)(=O)CC2)c1` [Example 43, 2-(1,1-Dioxidothiomorpholino)-4-((5-methyl-3-(3-(4-(trifluoromethoxy)phenyl)-1,2,4-oxadiazol-5-yl)-1H-1,2,4-triazol-1-yl)methyl)pyridin-1-ium trifluoroacetate] was run?
Answer: 100 to 1000 nM

Question: `Cc1nc(-c2nc(-c3ccc(OC(F)(F)F)cc3)no2)nn1Cc1cccc(N2CCOCC2)c1` [Example 44, 4-(3-((5-Methyl-3-(3-(4-(trifluoromethoxy)phenyl)-1,2,4-oxadiazol-5-yl)-1H-1,2,4-triazol-1-yl)methyl)phenyl)morpholine] was tested. Which IC50 did it give?
Answer: < 100 nM

Question: For `Cc1nc(-c2nc(-c3ccc(OC(F)(F)F)cc3)no2)nn1Cc1ccnc(NCCN(C)C)c1` [Example 45, N1,N1-Dimethyl-N2-(4-((5-methyl-3-(3-(4-(trifluoromethoxy)phenyl)-1,2,4-oxadiazol-5-yl)-1H-1,2,4-triazol-1-yl)methyl)pyridin-2-yl)ethane-1,2-diamine], which IC50 is on record?
Answer: 1000 to 10000 nM

Question: How did the IC50 turn out when `Cc1nc(-c2nc(-c3ccc(OC(F)(F)F)cc3)no2)nn1Cc1ccnc(NCCN2CCCC2)c1` [Example 46, 4-((5-Methyl-3-(3-(4-(trifluoromethoxy)phenyl)-1,2,4-oxadiazol-5-yl)-1H-1,2,4-triazol-1-yl)methyl)-N-(2-(pyrrolidin-1-yl)ethyl)pyridin-2-amine] was run?
Answer: 1000 to 10000 nM

Question: How did the IC50 turn out when `Cc1nc(-c2nc(-c3ccc(OC(F)(F)F)cc3)no2)nn1Cc1ccc(Cl)s1` [Example 47, 5-(1-((5-Chlorothiophen-2-yl)methyl)-5-methyl-1H-1,2,4-triazol-3-yl)-3-(4-(trifluoromethoxy)phenyl)-1,2,4-oxadiazole] was run?
Answer: 100 to 1000 nM

Question: `Cc1cc(Cn2nc(-c3nc(-c4ccc(OC(F)(F)F)cc4)no3)nc2C)n(C)n1` [Example 48, 5-(1-((1,3-Dimethyl-1H-pyrazol-5-yl)methyl)-5-methyl-1H-1,2,4-triazol-3-yl)-3-(4-(trifluoromethoxy)phenyl)-1,2,4-oxadiazole] was tested. Which IC50 did it give?
Answer: 100 to 1000 nM

Question: For `Cc1nc(-c2nc(-c3ccc(OC(F)(F)F)cc3)no2)nn1Cc1cc(=O)n2ccsc2n1` [Example 49, 7-((5-Methyl-3-(3-(4-(trifluoromethoxy)phenyl)-1,2,4-oxadiazol-5-yl)-1H-1,2,4-triazol-1-yl)methyl)-5H-thiazolo[3,2-a]pyrimidin-5-one], which IC50 is on record?
Answer: 100 to 1000 nM

Question: How did the IC50 turn out when `Cc1nc(-c2nc(-c3ccc(OC(F)(F)F)cc3)no2)nn1Cc1cccc(N2CCCC2)c1` [Example 50, 5-(5-Methyl-1-(3-(pyrrolidin-1-yl)benzyl)-1H-1,2,4-triazol-3-yl)-3-(4-(trifluoromethoxy)phenyl)-1,2,4-oxadiazole] was run?
Answer: 100 to 1000 nM

Question: With `Cc1nc(-c2nc(-c3ccc(OC(F)(F)F)cc3)no2)nn1Cc1cccc(N2CCC(C#N)CC2)c1` [Example 51, 1-(3-((5-Methyl-3-(3-(4-(trifluoromethoxy)phenyl)-1,2,4-oxadiazol-5-yl)-1H-1,2,4-triazol-1-yl)methyl)phenyl)piperidine-4-carbonitrile] as the molecule, how does the IC50 read?
Answer: < 100 nM

Question: With `Cc1nc(-c2nc(-c3ccc(OC(F)(F)F)cc3)no2)nn1Cc1cccc(N(C)C)c1` [Example 52, N,N-Dimethyl-3-((5-methyl-3-(3-(4-(trifluoromethoxy)phenyl)-1,2,4-oxadiazol-5-yl)-1H-1,2,4-triazol-1-yl)methyl)aniline] as the molecule, how does the IC50 read?
Answer: < 100 nM
